# The source made the active and inactive calls. No cut-off for these calls is given here.
# Assays:
# [1] = target: Histamine H1 receptor (Homo sapiens) (UniProt P35367); assay: H1 (h) Eurofins-Cerep Cellular and Nuclear Receptor Functional Assays; settings: Compound concentration 10.0 uM
# [2] = target: Phosphatidylinositol 3-kinase C2 domain-containing subunit gamma (Homo sapiens) (UniProt O75747); settings: Compound concentration 1000.0 nM
# [3] = target: Tyrosine-protein kinase HCK (Homo sapiens) (UniProt P08631); settings: Compound concentration 1000.0 nM
# [4] = target: Myosin-IIIb (Homo sapiens) (UniProt Q8WXR4); settings: Compound concentration 1000.0 nM
# [5] = target: Mitogen-activated protein kinase 6 (Homo sapiens) (UniProt Q16659); settings: Compound concentration 1000.0 nM
# [6] = target: Phosphatidylinositol 3-kinase catalytic subunit type 3 (Homo sapiens) (UniProt Q8NEB9); settings: Compound concentration 1000.0 nM
# [7] = target: Mitogen-activated protein kinase 14 (Homo sapiens) (UniProt Q16539); settings: Compound concentration 1000.0 nM
# [8] = target: Alpha-2C adrenergic receptor (Homo sapiens) (UniProt P18825); settings: Compound concentration 10.0 uM
# [9] = target: Phosphatidylinositol 5-phosphate 4-kinase type-2 gamma (Homo sapiens) (UniProt Q8TBX8); settings: Compound concentration 1000.0 nM
# [10] = target: Serine/threonine-protein kinase Nek2 (Homo sapiens) (UniProt P51955); settings: Compound concentration 1000.0 nM
# [11] = target: MAP kinase-interacting serine/threonine-protein kinase 1 (Homo sapiens) (UniProt Q9BUB5); settings: Compound concentration 1000.0 nM
# [12] = target: Receptor-interacting serine/threonine-protein kinase 1 (Homo sapiens) (UniProt Q13546); settings: Compound concentration 1000.0 nM
# [13] = target: T1, Proteinase-activated receptor 1 (Homo sapiens, UniProt P25116); assay: Functional cellular assay (HEK cells) (F2R)
# T1 sequence (P25116 whole entry): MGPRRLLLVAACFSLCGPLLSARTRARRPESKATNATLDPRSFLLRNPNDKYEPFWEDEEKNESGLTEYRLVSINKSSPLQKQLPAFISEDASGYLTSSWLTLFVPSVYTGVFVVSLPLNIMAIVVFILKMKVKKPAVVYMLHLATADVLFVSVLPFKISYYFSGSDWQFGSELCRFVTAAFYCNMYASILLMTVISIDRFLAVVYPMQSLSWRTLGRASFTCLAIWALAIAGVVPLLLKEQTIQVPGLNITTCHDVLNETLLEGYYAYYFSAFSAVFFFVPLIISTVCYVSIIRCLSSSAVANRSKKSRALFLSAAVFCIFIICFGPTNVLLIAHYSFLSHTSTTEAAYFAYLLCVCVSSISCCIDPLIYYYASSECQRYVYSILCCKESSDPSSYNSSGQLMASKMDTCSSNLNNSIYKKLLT
# [14] = tested on: Phosphatidylinositol 4,5-bisphosphate 3-kinase catalytic subunit alpha isoform (Homo sapiens), P42336 [E545K]; settings: Compound concentration 1000.0 nM
# [15] = target: Phosphorylase b kinase gamma catalytic chain, skeletal muscle/heart isoform (Homo sapiens) (UniProt Q16816); settings: Compound concentration 1000.0 nM
# [16] = target: Serine/threonine-protein kinase Chk2 (Homo sapiens) (UniProt O96017); settings: Compound concentration 1000.0 nM
# Rattus norvegicus = organism: Rattus norvegicus; settings: Compound concentration 10.0 uM
# [17] = target: Ephrin type-A receptor 3 (Homo sapiens) (UniProt P29320); settings: Compound concentration 1000.0 nM
# [18] = target: cAMP-dependent protein kinase catalytic subunit alpha (Homo sapiens) (UniProt P17612); settings: Compound concentration 1000.0 nM
# [19] = target: Receptor-type tyrosine-protein kinase FLT3 (Homo sapiens) (UniProt P36888); settings: Compound concentration 1000.0 nM
# [20] = target: Rho-associated protein kinase 1 (Homo sapiens) (UniProt Q13464); settings: Compound concentration 1000.0 nM
# [21] = target: TRAF2 and NCK-interacting protein kinase (Homo sapiens) (UniProt Q9UKE5); settings: Compound concentration 1000.0 nM
# [22] = target: Macrophage colony-stimulating factor 1 receptor (Homo sapiens) (UniProt P07333); settings: Compound concentration 1000.0 nM
# [23] = target: Serine/threonine-protein kinase TNNI3K (Homo sapiens) (UniProt Q59H18); settings: Compound concentration 1000.0 nM
# [24] = target: Mitogen-activated protein kinase kinase kinase 1 (Homo sapiens) (UniProt Q13233); settings: Compound concentration 1000.0 nM
# [25] = target: Glycogen synthase kinase-3 alpha (Homo sapiens) (UniProt P49840); settings: Compound concentration 1000.0 nM
# [26] = tested on: Phosphatidylinositol 4,5-bisphosphate 3-kinase catalytic subunit alpha isoform (Homo sapiens), P42336 [H1047Y]; settings: Compound concentration 1000.0 nM
# [27] = target: STE20-like serine/threonine-protein kinase (Homo sapiens) (UniProt Q9H2G2); settings: Compound concentration 1000.0 nM
# [28] = tested on: Tyrosine-protein kinase ABL1 (Homo sapiens), P00519 [F317L]; settings: Compound concentration 1000.0 nM
# [29] = target: Tyrosine-protein kinase ABL2 (Homo sapiens) (UniProt P42684); settings: Compound concentration 1000.0 nM
# [30] = target: Serine/threonine-protein kinase RIO2 (Homo sapiens) (UniProt Q9BVS4); settings: Compound concentration 1000.0 nM
# [31] = target: Mitogen-activated protein kinase kinase kinase kinase 4 (Homo sapiens) (UniProt O95819); settings: Compound concentration 1000.0 nM
# [32] = target: Ribosomal protein S6 kinase alpha-6 (Homo sapiens) (UniProt Q9UK32); settings: Compound concentration 1000.0 nM
# [33] = target: Serine/threonine-protein kinase SIK1 (Homo sapiens) (UniProt P57059); settings: Compound concentration 1000.0 nM
# [34] = target: Calcium/calmodulin-dependent protein kinase type IV (Homo sapiens) (UniProt Q16566); settings: Compound concentration 1000.0 nM
# [35] = target: Non-receptor tyrosine-protein kinase TYK2 (Homo sapiens) (UniProt P29597); settings: Compound concentration 1000.0 nM
# Sequence of Histamine H1 receptor (Homo sapiens) (P35367 whole entry, the tested form may be a part): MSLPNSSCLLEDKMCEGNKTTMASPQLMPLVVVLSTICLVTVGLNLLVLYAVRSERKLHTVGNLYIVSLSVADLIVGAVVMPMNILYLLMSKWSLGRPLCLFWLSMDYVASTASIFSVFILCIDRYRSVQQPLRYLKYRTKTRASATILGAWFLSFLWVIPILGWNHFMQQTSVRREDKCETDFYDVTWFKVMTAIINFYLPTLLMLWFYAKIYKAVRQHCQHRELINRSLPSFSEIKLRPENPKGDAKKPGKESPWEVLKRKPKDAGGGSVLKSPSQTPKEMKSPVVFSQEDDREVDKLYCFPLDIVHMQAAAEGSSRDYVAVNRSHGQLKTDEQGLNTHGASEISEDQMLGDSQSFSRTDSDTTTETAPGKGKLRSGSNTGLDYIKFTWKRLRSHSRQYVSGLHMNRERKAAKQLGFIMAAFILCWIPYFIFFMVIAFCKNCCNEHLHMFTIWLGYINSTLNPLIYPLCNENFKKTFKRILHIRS
# Sequence of Mitogen-activated protein kinase 14 (Homo sapiens) (Q16539 whole entry): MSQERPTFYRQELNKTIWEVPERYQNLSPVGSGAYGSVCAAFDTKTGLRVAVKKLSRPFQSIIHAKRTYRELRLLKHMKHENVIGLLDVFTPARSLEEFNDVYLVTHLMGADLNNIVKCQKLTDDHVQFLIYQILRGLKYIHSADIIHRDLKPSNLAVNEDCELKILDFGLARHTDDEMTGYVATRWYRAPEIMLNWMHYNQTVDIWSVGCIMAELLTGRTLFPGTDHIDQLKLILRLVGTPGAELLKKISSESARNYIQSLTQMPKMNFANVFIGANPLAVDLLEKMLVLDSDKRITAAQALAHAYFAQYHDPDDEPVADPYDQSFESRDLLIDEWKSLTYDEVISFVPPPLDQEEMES
# Sequence of Serine/threonine-protein kinase RIO2 (Homo sapiens) (Q9BVS4 whole entry, looked up): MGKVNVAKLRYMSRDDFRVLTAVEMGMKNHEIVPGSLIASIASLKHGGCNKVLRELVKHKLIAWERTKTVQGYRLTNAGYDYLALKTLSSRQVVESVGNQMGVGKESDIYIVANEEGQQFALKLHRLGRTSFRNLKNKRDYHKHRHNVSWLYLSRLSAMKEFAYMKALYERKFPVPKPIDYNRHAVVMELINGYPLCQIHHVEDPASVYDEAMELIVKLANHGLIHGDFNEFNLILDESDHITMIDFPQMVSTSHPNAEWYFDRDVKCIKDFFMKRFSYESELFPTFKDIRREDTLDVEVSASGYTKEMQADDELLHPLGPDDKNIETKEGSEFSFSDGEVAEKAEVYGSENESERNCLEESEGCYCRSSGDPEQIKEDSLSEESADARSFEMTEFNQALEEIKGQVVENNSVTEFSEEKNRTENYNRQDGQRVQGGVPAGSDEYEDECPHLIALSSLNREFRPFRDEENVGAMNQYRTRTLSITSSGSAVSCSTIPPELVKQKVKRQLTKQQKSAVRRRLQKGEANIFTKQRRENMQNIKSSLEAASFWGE
# Sequence of Receptor-type tyrosine-protein kinase FLT3 (Homo sapiens) (P36888 whole entry): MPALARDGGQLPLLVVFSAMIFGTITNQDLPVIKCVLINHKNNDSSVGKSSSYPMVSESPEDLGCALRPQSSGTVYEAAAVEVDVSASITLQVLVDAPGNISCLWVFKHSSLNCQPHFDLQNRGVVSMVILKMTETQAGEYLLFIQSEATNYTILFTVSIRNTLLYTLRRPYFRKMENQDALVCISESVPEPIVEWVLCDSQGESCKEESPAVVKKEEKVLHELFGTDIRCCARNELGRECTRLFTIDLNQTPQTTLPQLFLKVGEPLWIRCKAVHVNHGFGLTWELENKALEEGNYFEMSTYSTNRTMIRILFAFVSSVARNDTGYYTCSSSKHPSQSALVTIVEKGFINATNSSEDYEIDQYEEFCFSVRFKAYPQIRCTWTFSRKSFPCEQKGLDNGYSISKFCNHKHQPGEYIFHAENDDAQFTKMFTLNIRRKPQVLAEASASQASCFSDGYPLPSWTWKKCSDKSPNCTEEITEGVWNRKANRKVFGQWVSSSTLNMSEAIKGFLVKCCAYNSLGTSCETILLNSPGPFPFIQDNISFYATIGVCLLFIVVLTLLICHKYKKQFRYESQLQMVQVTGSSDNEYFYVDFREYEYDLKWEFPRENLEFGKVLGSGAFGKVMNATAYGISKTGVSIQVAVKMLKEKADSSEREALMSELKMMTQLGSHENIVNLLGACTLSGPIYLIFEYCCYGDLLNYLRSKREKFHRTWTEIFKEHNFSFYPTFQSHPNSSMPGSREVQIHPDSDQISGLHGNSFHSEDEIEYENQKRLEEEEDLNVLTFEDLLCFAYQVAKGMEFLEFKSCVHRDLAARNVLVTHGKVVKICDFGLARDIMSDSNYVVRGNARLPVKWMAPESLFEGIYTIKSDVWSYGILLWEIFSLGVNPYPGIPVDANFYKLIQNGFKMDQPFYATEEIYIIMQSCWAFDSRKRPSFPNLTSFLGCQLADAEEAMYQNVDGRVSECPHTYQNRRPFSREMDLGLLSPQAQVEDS
# Sequence of Serine/threonine-protein kinase Chk2 (Homo sapiens) (O96017 whole entry): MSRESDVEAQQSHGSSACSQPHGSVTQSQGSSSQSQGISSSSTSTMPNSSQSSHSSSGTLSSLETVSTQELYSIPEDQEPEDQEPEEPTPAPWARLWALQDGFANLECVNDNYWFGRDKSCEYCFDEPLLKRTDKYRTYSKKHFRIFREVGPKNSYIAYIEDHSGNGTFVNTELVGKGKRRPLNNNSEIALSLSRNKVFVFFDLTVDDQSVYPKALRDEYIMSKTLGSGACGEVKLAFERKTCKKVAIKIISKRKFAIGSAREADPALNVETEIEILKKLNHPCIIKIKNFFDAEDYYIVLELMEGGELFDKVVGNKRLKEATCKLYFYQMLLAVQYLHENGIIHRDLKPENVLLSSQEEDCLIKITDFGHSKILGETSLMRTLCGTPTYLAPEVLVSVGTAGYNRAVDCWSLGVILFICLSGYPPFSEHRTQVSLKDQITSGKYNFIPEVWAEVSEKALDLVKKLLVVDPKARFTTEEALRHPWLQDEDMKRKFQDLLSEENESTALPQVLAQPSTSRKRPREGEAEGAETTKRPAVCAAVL
# Sequence of Phosphatidylinositol 4,5-bisphosphate 3-kinase catalytic subunit alpha isoform (Homo sapiens), P42336 [E545K] (P42336 whole entry E545K, canonical isoform): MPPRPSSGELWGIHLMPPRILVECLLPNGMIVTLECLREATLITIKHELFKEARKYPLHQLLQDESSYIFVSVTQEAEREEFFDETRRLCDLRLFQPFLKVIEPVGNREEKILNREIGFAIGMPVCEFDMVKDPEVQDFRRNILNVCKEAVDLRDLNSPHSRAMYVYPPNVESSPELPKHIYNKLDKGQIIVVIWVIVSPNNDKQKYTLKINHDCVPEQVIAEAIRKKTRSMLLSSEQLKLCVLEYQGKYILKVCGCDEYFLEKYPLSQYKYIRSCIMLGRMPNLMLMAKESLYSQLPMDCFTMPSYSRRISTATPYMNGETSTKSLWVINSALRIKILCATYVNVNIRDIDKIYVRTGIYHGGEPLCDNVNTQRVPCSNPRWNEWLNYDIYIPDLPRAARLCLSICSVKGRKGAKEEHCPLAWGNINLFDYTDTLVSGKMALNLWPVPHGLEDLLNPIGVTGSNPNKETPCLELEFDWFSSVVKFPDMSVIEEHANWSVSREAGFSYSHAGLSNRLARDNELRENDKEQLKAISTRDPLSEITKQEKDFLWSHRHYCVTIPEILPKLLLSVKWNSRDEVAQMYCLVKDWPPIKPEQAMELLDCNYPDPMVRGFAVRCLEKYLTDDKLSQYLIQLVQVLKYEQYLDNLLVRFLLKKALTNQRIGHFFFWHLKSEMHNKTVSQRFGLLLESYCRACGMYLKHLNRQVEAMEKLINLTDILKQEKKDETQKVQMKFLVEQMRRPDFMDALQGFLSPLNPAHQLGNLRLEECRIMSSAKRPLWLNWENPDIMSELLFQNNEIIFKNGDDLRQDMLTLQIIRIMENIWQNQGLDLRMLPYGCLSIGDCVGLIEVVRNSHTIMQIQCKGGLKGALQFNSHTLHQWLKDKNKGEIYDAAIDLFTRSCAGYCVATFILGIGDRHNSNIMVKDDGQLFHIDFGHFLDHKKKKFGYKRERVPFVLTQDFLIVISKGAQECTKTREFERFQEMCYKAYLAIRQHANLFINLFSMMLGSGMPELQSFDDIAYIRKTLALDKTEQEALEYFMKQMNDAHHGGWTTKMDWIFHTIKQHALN
# Sequence of Phosphatidylinositol 3-kinase catalytic subunit type 3 (Homo sapiens) (Q8NEB9 whole entry): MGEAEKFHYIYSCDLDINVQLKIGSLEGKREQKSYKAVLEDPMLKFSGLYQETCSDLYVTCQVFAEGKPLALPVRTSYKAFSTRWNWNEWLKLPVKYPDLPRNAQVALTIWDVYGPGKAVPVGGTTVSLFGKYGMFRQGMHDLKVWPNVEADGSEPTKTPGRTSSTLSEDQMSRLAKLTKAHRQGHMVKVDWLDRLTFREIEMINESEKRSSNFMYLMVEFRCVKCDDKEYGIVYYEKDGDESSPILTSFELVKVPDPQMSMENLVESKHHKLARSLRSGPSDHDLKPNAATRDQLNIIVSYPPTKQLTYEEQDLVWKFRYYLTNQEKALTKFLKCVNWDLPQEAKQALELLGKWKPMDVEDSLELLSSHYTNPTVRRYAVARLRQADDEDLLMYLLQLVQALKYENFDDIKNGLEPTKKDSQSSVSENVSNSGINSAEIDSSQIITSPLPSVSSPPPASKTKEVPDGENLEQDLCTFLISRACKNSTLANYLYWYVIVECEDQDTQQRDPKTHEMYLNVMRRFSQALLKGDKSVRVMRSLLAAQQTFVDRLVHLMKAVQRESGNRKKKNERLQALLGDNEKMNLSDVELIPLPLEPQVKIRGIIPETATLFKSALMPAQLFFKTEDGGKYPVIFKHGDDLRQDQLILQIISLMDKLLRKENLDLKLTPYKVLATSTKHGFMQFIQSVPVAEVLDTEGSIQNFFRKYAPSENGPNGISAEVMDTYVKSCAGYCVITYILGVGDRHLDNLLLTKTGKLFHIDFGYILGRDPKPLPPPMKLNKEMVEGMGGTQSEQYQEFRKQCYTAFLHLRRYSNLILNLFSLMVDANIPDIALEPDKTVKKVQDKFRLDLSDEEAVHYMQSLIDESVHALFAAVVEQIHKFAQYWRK
structure (smiles),measurement,setting,value
O=C(N1CCS(=O)(=O)CC1)N1C[C@H](c2ccc(OC(F)(F)F)cc2)C[C@H](c2nc(C3CC3)no2)C1 [BAY-386],% Inhibition of Control Agonist Response (Mean n=2),[1],6.9%
same,% of Control Agonist Response (Mean n=2),[1],4.1%
same,residual activity,[2],93%
same,residual activity,[3],100%
same,residual activity,[4],89%
same,residual activity,[5],100%
same,residual activity,[6],100%
same,residual activity,[7],100%
same,inhibition,[8],11.6%
same,residual activity,[9],96%
same,residual activity,[10],100%
same,residual activity,[11],100%
same,residual activity,[12],100%
same,IC50,[13],0.01 µM (active)
same,residual activity,[14],90%
same,residual activity,[15],94%
same,residual activity,[16],100%
same,inhibition,Rattus norvegicus,14.9%
same,residual activity,[17],100%
same,residual activity,[18],100%
same,residual activity,[19],96%
same,residual activity,[20],94%
same,residual activity,[21],75%
same,residual activity,[22],100%
same,residual activity,[23],100%
same,residual activity,[24],100%
same,residual activity,[25],100%
same,residual activity,[26],100%
same,residual activity,[27],100%
same,residual activity,[28],92%
same,residual activity,[29],100%
same,residual activity,[30],100%
same,residual activity,[31],100%
same,residual activity,[32],100%
same,residual activity,[33],99%
same,residual activity,[34],91%
same,residual activity,[35],53%
Cc1noc([C@H]2C[C@@H](c3ccc(C(F)(F)F)cc3)CN(C(=O)N3CCS(=O)(=O)C3)C2)n1 [BAY-448],% Inhibition of Control Agonist Response (Mean n=2),[1],-14.6%
same,% of Control Agonist Response (Mean n=2),[1],0.3%
same,residual activity,[2],90%
same,residual activity,[3],100%
same,residual activity,[4],100%
same,residual activity,[5],100%
same,residual activity,[6],90%
same,residual activity,[7],79%
same,inhibition,[8],10.5%
same,residual activity,[9],89%
same,residual activity,[10],100%
same,residual activity,[11],99%
same,residual activity,[12],100%
same,IC50,[13],> 10 µM (not active)
same,residual activity,[14],65%
same,residual activity,[15],100%
same,residual activity,[16],100%
same,inhibition,Rattus norvegicus,7.2%
same,residual activity,[17],100%
same,residual activity,[18],100%
same,residual activity,[19],100%
same,residual activity,[20],100%
same,residual activity,[21],99%
same,residual activity,[22],100%
same,residual activity,[23],100%
same,residual activity,[24],100%
same,residual activity,[25],79%
same,residual activity,[26],95%
same,residual activity,[27],98%
same,residual activity,[28],85%
same,residual activity,[29],100%
same,residual activity,[30],100%
same,residual activity,[31],100%
same,residual activity,[32],100%
same,residual activity,[33],100%
same,residual activity,[34],95%
same,residual activity,[35],100%

# — ChEMBL document CHEMBL4507269, “Data for DCP probe BAY-386” (2021)
